Test results as given in patent US20160222014A1, “COMPOUNDS FOR REGULATING FAK AND/OR SRC PATHWAYS” (ASANA BIOSCIENCES, LLC, priority 2013, published 2016).

The molecules below were run against T1, AURKB (Aurora B) enzyme (Homo sapiens, UniProt Q96GD4) (assay: Aurora B HTRF assay). Details: read-out: AuroraB IC50.
T1 construct: purchased Invitrogen PVR 130
T1 sequence (Q96GD4 whole entry): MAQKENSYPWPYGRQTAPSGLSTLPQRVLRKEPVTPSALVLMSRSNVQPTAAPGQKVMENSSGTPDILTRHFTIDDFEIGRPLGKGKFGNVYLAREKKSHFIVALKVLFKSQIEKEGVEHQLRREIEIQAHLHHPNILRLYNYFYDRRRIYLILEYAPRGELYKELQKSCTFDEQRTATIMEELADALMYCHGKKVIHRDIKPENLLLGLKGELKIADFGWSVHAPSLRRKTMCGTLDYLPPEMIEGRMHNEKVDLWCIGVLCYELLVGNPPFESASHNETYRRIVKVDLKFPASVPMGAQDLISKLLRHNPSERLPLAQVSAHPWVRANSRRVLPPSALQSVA
Type: biochemical
Description: AURKB (Aurora B) enzyme was obtained (Invitrogen, Cat No. PVR 130, Lot No. 857013J). A 8.64 μM stock was used at a final concentration 5 nM in the assay.
Lance@Ultera Ulight-PLK (Ser137) peptide substrate
Peptide substrate was obtained from Perkin Elmer (Lot#1629793, TRF0110-M). A 5 μM stock was used at a final concentration of 50 nM in the assay.
10 mM stock prepared freshly as above, used at a final concentration of 30 μM in assay.
The plate was covered with aluminum foil, put on a shaker and incubated 1 h at rt.
Reference: Pfizer aurora inhibitor PF-03814735 was procured from Selleckchem: Cat# S2725
Using stock Lance detection buffer, 1× Lance detection buffer was prepared. • 1. 10× lance detection buffer was diluted to 1×, mixed well and 100 μL was removed, and was used to substitute with antibody and EDTA (for a total of 2200 μL). • 2. 88 μL of […] EDTA was added from 500 mM stock. • 3. 14 μL Europium labeled antibody (LANCE@ Ultra EU-Anti-P-PLK(Ser 137), TRF0203-D, Lot No. 1630351, Perkin Elmer) was added from 625 nM stock; required concentration was 2 nM in the assay. • 4. The buffer well was mixed and 20 μL was transferred to the each well in the assay plate. • 5. The solutions were incubated for 1 h at rt. • 6. The plate was read using MET-HTRF® protocol using Pherastar equipment.
`Cc1cc(Nc2cc3c(ccn3S(=O)(=O)c3ccccc3C#N)cn2)ccc1N1CCNCC1` [Example 390] was tested, and the IC50 was < 20 nM.
With `O=S(=O)(c1cccc2cccnc12)n1ccc2cnc(Nc3ccc(N4CCNCC4)c(F)c3)cc21` [Example 323] the IC50 was < 20 nM.
For `CN1CCN(c2ccc(Nc3ncc4ccn(Cc5ccccc5N(C)S(C)(=O)=O)c4n3)cc2)CC1` [Example 428], the IC50 was < 20 nM.

These molecules were tested against T2, Recombinant Src enzyme (Homo sapiens, UniProt P12931) (assay: Src HTRF assay). Details: not given.
T2 construct: purchased Millipore 14-326; host or cells: Sf21 insect cells
T2 sequence (P12931 whole entry): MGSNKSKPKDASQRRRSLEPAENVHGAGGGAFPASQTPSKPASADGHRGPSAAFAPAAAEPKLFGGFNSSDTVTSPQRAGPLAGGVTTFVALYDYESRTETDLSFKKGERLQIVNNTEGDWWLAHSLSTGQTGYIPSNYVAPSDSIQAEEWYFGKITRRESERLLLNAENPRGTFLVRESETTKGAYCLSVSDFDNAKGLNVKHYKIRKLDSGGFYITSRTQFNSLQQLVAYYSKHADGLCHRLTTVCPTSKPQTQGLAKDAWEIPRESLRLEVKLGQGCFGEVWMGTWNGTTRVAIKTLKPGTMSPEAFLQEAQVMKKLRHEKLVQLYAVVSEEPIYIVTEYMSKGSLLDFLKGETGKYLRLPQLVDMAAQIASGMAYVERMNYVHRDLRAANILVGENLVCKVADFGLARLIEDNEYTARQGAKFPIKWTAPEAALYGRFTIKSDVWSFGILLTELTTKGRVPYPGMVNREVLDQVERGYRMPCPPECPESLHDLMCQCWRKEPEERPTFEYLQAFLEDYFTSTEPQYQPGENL
Type: biochemical
Description: Enzyme assay buffer, supplements, and compounds were prepared as described in the FAK HTRF assay.
Recombinant Src enzyme expressed in Sf21 insect cells was obtained (Millipore, Cat No. 14-326, Lot # D8CN006U-K). A 35 μM stock was used at a final concentration of 5 nM in the assay.
Tyk2 synthetic peptide-Biotinylated-N-terminal tag-[…]
A custom made substrate, a Tyk2 synthetic peptide, biotinylated with an N-terminal tag was obtained (Biopeptide and Sigma, Cat. No. 14918001 VC80021). A 100 μM stock was used at a final concentration of 0.5 μM in the assay.
A 10 mM stock in 100 μL enzyme assay buffer pH7.4 was prepared freshly and used at a final concentration of 10 μM in the assay.
Dasatinib (Bristol-Myers Squibb)
The assay procedure was the same as discussed above.
With `CC(c1ccccc1Cn1ccc2cnc(Nc3ccc(N4CCC(N(C)C)CC4)cc3)nc21)S(C)(=O)=O` (centres unmarked) [Example 791] the IC50 was > 1000 nM.
With `COc1ccc(Cn2ccc3cnc(Nc4ccc(N5CCNCC5)cc4)nc32)c(N(C)S(C)(=O)=O)c1` [Example 772] the IC50 was > 1000 nM.
With `COc1ccccc1S(=O)(=O)n1ncc2cnc(Nc3ccc4c(c3)CCC(=O)N4)cc21` [Example 130] the IC50 was > 1000 nM.
For `Cc1cn(Cc2cccnc2N(C)S(C)(=O)=O)c2nc(Nc3ccc(N4CCNCC4)cc3)ncc12` [Example 719], the IC50 was > 1000 nM.
With `CC(c1ccccc1N(C)S(C)(=O)=O)n1ccc2cnc(Nc3ccc(N4CCN[C@H](C)C4)cc3)nc21` (some centres unmarked) [Example 779] the IC50 was > 1000 nM.
With `CC1(C)CN(S(=O)(=O)c2cccc3cccnc23)c2nc(Nc3ccc4c(c3)CC(=O)N4)ncc21` [Example 511] the IC50 was > 1000 nM.
`C[C@H]1CNCCN1c1ccc(Nc2cc3c(ccn3S(=O)(=O)c3ccccc3C#N)cn2)cc1` [Example 477] was tested, and the IC50 was > 1000 nM.
With `CN(C)C1CN(c2ccc(Nc3ncc4c(n3)N(S(=O)(=O)c3cccc5cccnc35)CC4(C)C)cc2)C1` [Example 603] the IC50 was > 1000 nM.
For `O=S(=O)(c1ccccc1OC(F)(F)F)n1ccc2cnc(Nc3ccc(N4CCOCC4)cc3)nc21` [Example 112], the IC50 was > 1000 nM.
With `C[C@H]1CN(c2ccc(Nc3ncc4nnn(Cc5cccnc5N(C)S(C)(=O)=O)c4n3)cc2)CCN1` [Example 790] the IC50 was > 1000 nM.
For `COc1ccccc1S(=O)(=O)n1ncc2cnc(Nc3ccc4ncsc4c3)cc21` [Example 132], the IC50 was > 1000 nM.
With `COc1cc(Nc2ncc3c(n2)N(S(=O)(=O)c2cccc4cccnc24)CC3(C)C)ccc1N1CCN[C@@H](C)C1` [Example 627] the IC50 was > 1000 nM.
For `CN(c1ncccc1Cn1ccc2cnc(Nc3ccncc3)nc21)S(C)(=O)=O` [Example 138], the IC50 was > 1000 nM.
With `COc1c(Nc2ncc3ccn(S(=O)(=O)c4cccc5cccnc45)c3n2)ccc(N2CCNCC2)c1F` [Example 370] the IC50 was > 1000 nM.
`CC1(C)CN(S(=O)(=O)c2cccc3ccccc23)c2nc(Nc3ccc(N4CCNCC4)cc3)ncc21` [Example 760] was tested, and the IC50 was > 1000 nM.
For `COc1cc(C(=O)N2CCOCC2)ccc1Nc1ncc2ccn(Cc3ccccc3N(C)S(C)(=O)=O)c2n1` [Example 503], the IC50 was > 1000 nM.
In the case of `CN(C)C1CCN(c2ccc(Nc3ncc4ccn(Cc5ccc(C#N)cc5N(C)S(C)(=O)=O)c4n3)cc2)CC1` [Example 689], the IC50 is reported as > 1000 nM.
For `CC1(C)CN(S(=O)(=O)c2cccc3cccnc23)c2nc(Nc3ccc(N4CCN(C5CC5)CC4)cc3)ncc21` [Example 771], the IC50 was > 1000 nM.
`O=C1CCc2cc(Nc3cc4c(ccn4S(=O)(=O)c4cccc(OC(F)(F)F)c4)cn3)ccc2N1` [Example 56] was tested, and the IC50 was > 1000 nM.
For `CC(C)(O)C(=O)Nc1cccc(Nc2ncc3ccn(S(=O)(=O)c4ccccc4OC(F)(F)F)c3n2)c1` [Example 110], the IC50 was > 1000 nM.
In the case of `CN(C)C1CCN(c2ccc(Nc3ncc4c(C#N)cn(Cc5cccnc5N(C)S(C)(=O)=O)c4n3)cc2)CC1` [Example 728], the IC50 is reported as > 1000 nM.
For `COc1ccccc1S(=O)(=O)n1ccc2cnc(Nc3cccnc3)nc21` [Example 143], the IC50 was > 1000 nM.
`O=S(=O)(c1cccc2cccnc12)n1ccc2cnc(Nc3ccc(N4CCNCC4)cc3CO)nc21` [Example 363] was tested, and the IC50 was > 1000 nM.
`CN(c1cccc(Cn2ccc3cnc(Nc4ccc5c(c4)CCC(=O)N5)nc32)n1)S(C)(=O)=O` [Example 141] was tested, and the IC50 was > 1000 nM.
For `COc1cc(Nc2cc3c(ccn3Cc3cccnc3N(C)S(C)(=O)=O)cn2)ccc1N1CCNCC1` [Example 364], the IC50 was > 1000 nM.
For `O=C(Nc1ccc(Nc2cc3c(cn2)cnn3S(=O)(=O)c2cccc3cccnc23)cc1)C1CC1` [Example 375], the IC50 was > 1000 nM.

The molecules below were run against T3, recombinant human FAK1 (Homo sapiens, UniProt Q05397) (assay: FAK1 HTRF assay). Details: not given.
T3 construct: fused on or other part: N-terminal 6xHis tag
T3 sequence (Q05397 422-680 limits assumed): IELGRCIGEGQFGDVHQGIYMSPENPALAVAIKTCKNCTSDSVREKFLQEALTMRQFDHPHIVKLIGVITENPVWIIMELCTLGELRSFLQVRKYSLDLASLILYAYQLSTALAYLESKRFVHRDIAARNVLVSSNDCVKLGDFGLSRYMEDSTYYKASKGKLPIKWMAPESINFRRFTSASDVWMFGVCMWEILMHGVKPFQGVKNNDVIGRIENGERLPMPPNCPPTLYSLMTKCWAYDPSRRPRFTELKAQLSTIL
Type: biochemical
Method in brief: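 His-tagged human FAK1 (residues 692–end, Sf9-expressed), 10 nM final, with 0.5 μM biotinylated gastrin-precursor Tyr87 peptide and a 10 μM final reagent in pH 7.4 buffer, 45 min at rt. Detection used Eu anti-pTyr antibody plus SA-APC (665/620 nm). Compounds top concentration 10 μM; IC50 from % inhibition.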
In the case of `Cc1cc(Nc2cc3c(ccn3S(=O)(=O)c3ccccc3C#N)cn2)ccc1N1CCNCC1` [Example 390], the IC50 is reported as < 20 nM.
In the case of `O=S(=O)(c1cccc2cccnc12)n1ccc2cnc(Nc3ccc(N4CCNCC4)c(F)c3)cc21` [Example 323], the IC50 is reported as < 20 nM.
For `CN1CCN(c2ccc(Nc3ncc4ccn(Cc5ccccc5N(C)S(C)(=O)=O)c4n3)cc2)CC1` [Example 428], the IC50 was < 20 nM.
